Experimental findings from patent US11339144B2 (Navitor Pharmaceuticals, Inc., priority 2017, dated 2022) are described below.

The target in test [1] is HA-GST-Rheb (GTP-γ-S loaded) activating mTORC1 (Homo sapiens (Human), UniProt Q15382). The test can be described thus: Rheb-dependent in vitro kinase assay (Rheb-IVK; LanthaScreen or Western readout). The test is classed as biochemical. Particulars: Rheb-dependent in vitro kinase assay; read-out: IVK IC50.
The next test addresses Rheb (Homo sapiens (Human), UniProt Q15382). The test can be described thus: Affinity Selection Mass Spectrometry (ASMS). The test is classed as binding. Particulars: affinity (R3/R0) in Affinity Selection Mass Spectrometry assay. As to the method: Method 2 (Affinity Selection Mass Spectrometry
Protein: Rheb (19 KDa) in the following buffer: 20 mM Tris, pH 8.0, 200 mM NaCl, 2 mM DTT, 5 mM MgCl2 was prepared as under.
Human Rheb protein (I-169) was purified from BL21 (DE3) E. coli using a His-Smt-Rheb expression vector. The cell paste was lysed in lysis buffer (50 mM HEPES pH 7.5, 0.5 M NaCl, 5% Glycerol, 1% CHAPS, EDTA free protease inhibitor tablets, lysozyme to 1 mg/mL, benzonase 250U), sonicated, and purified on a HiTrap Ni Chelating Column (GE Healthcare) using the following buffer: 50 mM HEPES pH 7.5, 0.5 M NaCl, 5% Glycerol, and imidazole increasing in concentration from 5 mM to 500 mM. The His-Smt tag was cleaved using a U1p1 enzyme and dialyzed into 50 mM HEPES pH 7.5, 0.5 M NaCl, 5% Glycerol. The resultant protein was again purified on a Ni Chelating column to remove the U1p1 enzyme and His-Smt tag and then purified by size exclusion chromatography on a Sephacryl S-100 26/60 column into the following final buffer: 20 mM NaPhos pH 7.0, 100 mM NaCl, 5 mM MgCl2, 2 mM TCEP.
Concentrations: 60 μM Rheb, 180 μM GDP and 2 μM of each compound,
Ultrafiltration Filter (Sartorius, Germany) MW cutoff: 10 KDa
• (a) Sample preparation: Prepare sample for each group in 1.5 mL microcentrifuge tube according to the experimental design, total volume 550 μL. In a standard ASMS experiment there are two groups: Protein plus (P+L+) and protein minus (P−L+). • (b) Transfer 50 μL from the 550 μL to a vial as R0 sample. Incubate the rest solution for 30 min at room temperature. Then transfer the 500 μL into an ultrafiltration filter tube and centrifuge at 12×10^3 rpm for ˜10 min, leave about 50 μL solution (otherwise adjust this time). • (c) Add incubation buffer to the ultrafiltration filter tube to about 500 μL. Stir gently and centrifuge mixtures as above, leave about 50 μL solution. • (d) Repeat the step c. Transfer the remaining 50 μL upper layer solution to a new vial as R^3 sample. Sample Extraction: Add 150 μL MeCN to denature the protein completely. Centrifuge at 12×10^3 rpm for 5 min. Transfer the supernatant into LC-MS auto sampler vials for LC-MS analysis (5 uL injection).
Waters Acquity UPLC system, Waters ACQUITY UPLC BEH C18 column (2.1×50 mm, 1.7 μM); Mobile phase A: 0.1% formic acid solution, B: MeCN; 0.3 mL/min, 5 μL injection, gradient elution (Table 5).
Waters Synapt G1 Q-TOF system, positive or negative ion scan modes; Capillary voltage: 3.0 kV; Method: MSE; Mass range: m/z=100-1000; Source temperature: 120° C.; Desolvation temperature: 400° C.; Collision voltage: 35 V; Sampling Cone: 35 V; Extraction Cone: 4.0 V; Cone Gas: 50 L/h; Desolvation Gas: 800 L/h.

Sequence of Rheb (Q15382 1-169 limits assumed): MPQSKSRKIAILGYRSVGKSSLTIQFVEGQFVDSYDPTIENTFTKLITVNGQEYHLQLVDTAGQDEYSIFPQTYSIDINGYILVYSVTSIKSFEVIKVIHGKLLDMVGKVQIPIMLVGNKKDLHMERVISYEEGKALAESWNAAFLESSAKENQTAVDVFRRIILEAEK
Sequence of HA-GST-Rheb (GTP-γ-S loaded) activating mTORC1 (Q15382 1-181): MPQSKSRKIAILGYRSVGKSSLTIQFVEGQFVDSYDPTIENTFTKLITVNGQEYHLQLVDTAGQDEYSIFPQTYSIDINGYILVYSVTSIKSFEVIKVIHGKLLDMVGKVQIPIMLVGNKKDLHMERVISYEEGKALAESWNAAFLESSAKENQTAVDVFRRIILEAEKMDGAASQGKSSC

What is called IC50 is the concentration that gives 50% inhibition. As to `O=C(O)c1ccc(Cn2c(C(=O)O)cc3c(Br)cc(Sc4ccc(Cl)c(Cl)c4)cc32)cc1` [I-42, 4-bromo-1-(4-carboxybenzyl)-6-(3,4-dichlorophenylthio)-1H-indole-2-carboxylic acid], the IC50 in test [1] is under 10 µM. Moreover, the “ASMS (R3/R0)” value on Rheb was “B (an affinity (R3/R0) between 100% and 20%)”. As for `Clc1ccc2nc(-c3ncco3)n(Cc3ccc(-c4nnn[nH]4)cc3)c2c1` [I-411, 2-(1-(4-(1H-tetrazol-5-yl)benzyl)-6-chloro-1H-benzo[d]imidazol-2-yl)oxazole], the IC50 in test [1] was in the range of 10 to 100 µM. For the same compound, the “ASMS (R3/R0)” value on Rheb is on record as “C (an affinity (R3/R0)<20%)”.

`OCc1cc2c(Sc3ccc(F)c(F)c3)cc(Cl)cc2[nH]1` [I-152, (6-chloro-4-(3,4-difluorophenylthio)-1H-indol-2-yl)methanol]: the half-maximal inhibitory concentration (IC50) in test [1] is 10 to 100 µM. Further, the “ASMS (R3/R0)” value on Rheb is “B (an affinity (R3/R0) between 100% and 20%)”.

`CN(C)C(=O)c1ccc(Cn2c(-c3nn[nH]n3)cc3c(Br)cc(Sc4ccc(Cl)c(Cl)c4)cc32)cc1` [I-14]: the IC50 in test [1] was over 3 µM. For the same compound, on Rheb, the “ASMS (R3/R0)” value is “B (an affinity (R3/R0) between 100% and 20%)”.

On to `c1ccc(Oc2cccc3c2nc(-c2ncco2)n3Cc2ccc(-c3nnn[nH]3)cc2)cc1` [I-421, 2-(1-(4-(1H-tetrazol-5-yl)benzyl)-4-phenoxy-1H-benzo[d]imidazol-2-yl)oxazole], for which the IC50 in test [1] fell in the range of 10 to 100 µM. Moreover, on Rheb, the “ASMS (R3/R0)” value was “C (an affinity (R3/R0)<20%)”. Regarding `OCc1cc2cc(SCc3ccc(Cl)cc3)c(Cl)cc2[nH]1` [I-76, (6-chloro-5-(4-chlorobenzylthio)-1H-indol-2-yl)methanol], the IC50 in test [1] lay in the range of 10 to 100 µM. Further, on Rheb, the “ASMS (R3/R0)” value is “B (an affinity (R3/R0) between 100% and 20%)”. `O=C(O)c1ccc(CCn2c(C(=O)O)cc3c(Br)cc(Oc4ccccc4)cc32)cc1` [I-36]: the IC50 in test [1] was over 100 µM. Moreover, on Rheb, the “ASMS (R3/R0)” value is “C (an affinity (R3/R0)<20%)”. In the case of `Clc1cccc(Sc2cccc3[nH]ccc23)c1` [I-243, 4-(3-chlorophenylthio)-1H-indole], the IC50 in test [1] was 10 to 100 µM. For the same compound, at Rheb, the “ASMS (R3/R0)” value is “B (an affinity (R3/R0) between 100% and 20%)”.

Turning to `CN(C)C(=O)c1ccc(Cn2c(C#N)cc3c(Br)cc(Sc4ccc(Cl)c(Cl)c4)cc32)cc1` [I-13], the IC50 in test [1] is over 100 µM. The “ASMS (R3/R0)” value at Rheb was “B (an affinity (R3/R0) between 100% and 20%)”. On to `O=C(O)c1cc2c(Cl)cc(-c3cc(Cl)cc(Cl)c3)cc2[nH]1` [I-47, 4-chloro-6-(3,5-dichlorophenyl)-1H-indole-2-carboxylic acid], for which the IC50 in test [1] was 10 to 100 µM. Moreover, at Rheb, the “ASMS (R3/R0)” value was “B (an affinity (R3/R0) between 100% and 20%)”.

As to `O=C(O)c1ccc(-c2nc3cc(Cl)c(Cl)cc3[nH]2)cc1` [I-364, 4-(5,6-dichloro-1H-benzo[d]imidazol-2-yl)benzoic acid], in test [1], the IC50 was in the range of 100 to 300 µM. In addition, the “ASMS (R3/R0)” value on Rheb was “B (an affinity (R3/R0) between 100% and 20%)”. For the compound `O=C(O)c1nc2cc(OCc3ccc(Cl)cc3)c(Cl)c(Cl)c2[nH]1` [I-338, 6,7-dichloro-5-(4-chlorobenzyloxy)-1H-benzo[d]imidazole-2-carboxylic acid], in test [1], the IC50 was over 3 µM. Besides, the “ASMS (R3/R0)” value on Rheb was “B (an affinity (R3/R0) between 100% and 20%)”.

Take `O=C(O)c1cc2cc(SCc3ccc(Cl)cc3)c(Cl)cc2[nH]1` [I-85, 6-chloro-5-(4-chlorobenzylthio)-1H-indole-2-carboxylic acid]: the IC50 in test [1] was 10 to 100 µM. The “ASMS (R3/R0)” value on Rheb is “B (an affinity (R3/R0) between 100% and 20%)”. For the compound `Cn1c(CO)cc2c(Oc3cccc(Cl)c3)cccc21` [I-271], the IC50 in test [1] was over 3 µM. At Rheb, the “ASMS (R3/R0)” value is given as “C (an affinity (R3/R0)<20%)”.

For `Clc1ccc2[nH]c(-c3cnco3)cc2c1Oc1ccccc1` [I-256, 5-(5-chloro-4-phenoxy-1H-indol-2-yl)oxazole], the IC50 in test [1] was in the range of 10 to 100 µM. In addition, the “ASMS (R3/R0)” value on Rheb was “B (an affinity (R3/R0) between 100% and 20%)”. Regarding `OCc1nc2c(OCC3CCCCC3)c(Cl)c(Cl)cc2[nH]1` [I-395, (5,6-dichloro-4-(cyclohexylmethoxy)-1H-benzo[d]imidazol-2-yl)methanol], in test [1], the IC50 is under 10 µM. At Rheb, the “ASMS (R3/R0)” value is “A (an affinity (R3/R0)>100%)”. With `OCc1cc2c(OCc3cccc(Cl)c3)cc(Cl)cc2[nH]1` [I-176, (6-chloro-4-(3-chlorobenzyloxy)-1H-indol-2-yl)methanol], the IC50 in test [1] fell in the range of 10 to 100 µM. The “ASMS (R3/R0)” value at Rheb is “B (an affinity (R3/R0) between 100% and 20%)”. For the compound `O=C(c1cc2c(Sc3ccc(Cl)cc3Cl)cc(Cl)cc2[nH]1)N1CCNCC1` [I-105, (6-chloro-4-(2,4-dichlorophenylthio)-1H-indol-2-yl)(piperazin-1-yl)methanone], the IC50 in test [1] was 10 to 100 µM. Besides, at Rheb, the “ASMS (R3/R0)” value was “B (an affinity (R3/R0) between 100% and 20%)”.

As for `CN1CCC[C@H]1CNC(=O)c1cc2c(Br)cc(Sc3ccc(Cl)c(Cl)c3)cc2[nH]1` [I-89], the IC50 in test [1] was over 100 µM. The “ASMS (R3/R0)” value at Rheb is on record as “A (an affinity (R3/R0)>100%)”. `CN1CCC(CCNC(=O)c2ccc(-c3nc4cc(Cl)c(Cl)cc4[nH]3)cc2)CC1` [I-362]: the IC50 in test [1] was over 100 µM. For the same compound, on Rheb, the “ASMS (R3/R0)” value is “A (an affinity (R3/R0)>100%)”. As for `O=C(O)Cn1c(-c2c[nH]c3ncccc23)nc2cc(Cl)c(Cl)cc21` [I-334, 2-(5,6-dichloro-2-(1H-pyrrolo[2,3-b]pyridin-3-yl)-1H-benzo[d]imidazol-1-yl)acetic acid], the IC50 in test [1] lay in the range of 10 to 100 µM. Besides, the “ASMS (R3/R0)” value at Rheb is “B (an affinity (R3/R0) between 100% and 20%)”. On to `O=C(O)c1cc2c(-c3cc(Cl)cc(Cl)c3)cc(Cl)cc2[nH]1` [I-49, 6-chloro-4-(3,5-dichlorophenyl)-1H-indole-2-carboxylic acid], for which the IC50 in test [1] was under 10 µM. Besides, on Rheb, the “ASMS (R3/R0)” value is “B (an affinity (R3/R0) between 100% and 20%)”.

Take `Clc1ccc(Sc2cccc3c2ccn3Cc2ccc(-c3nnn[nH]3)cc2)c(Cl)c1` [I-161, 1-(4-(1H-tetrazol-5-yl)benzyl)-4-(2,4-dichlorophenylthio)-1H-indole]: in test [1], the IC50 is under 10 µM. For the same compound, the “ASMS (R3/R0)” value on Rheb is listed as “A (an affinity (R3/R0)>100%)”. Turning to `OCc1cc2c(Oc3cccc(Cl)c3)cccc2[nH]1` [I-275, (4-(3-chlorophenoxy)-1H-indol-2-yl)methanol], the IC50 in test [1] was 100 to 300 µM. In addition, the “ASMS (R3/R0)” value on Rheb is reported as “C (an affinity (R3/R0)<20%)”. For the compound `OCc1nc2cc(OCc3cccc(Cl)c3)c(Cl)cc2[nH]1` [I-478, (5-chloro-6-(3-chlorobenzyloxy)-1H-benzo[d]imidazol-2-yl)methanol], in test [1], the IC50 is 300 to 800 µM.

On to `Cn1c(CO)cc2c(Oc3ccc(Cl)cc3)cccc21` [I-259], for which the IC50 in test [1] is over 100 µM. As for `O=C(O)c1cccc(Cn2c(-c3ncco3)nc3cc(Cl)c(Cl)cc32)c1` [I-446], the IC50 in test [1] is over 100 µM.

Regarding `OCc1nc2c(OCCc3c[nH]cn3)c(Cl)c(Cl)cc2[nH]1` [I-384], the IC50 in test [1] was over 100 µM.

`COc1ccc(Cn2cnc3c(Br)cc(Oc4ccccc4)cc32)cc1` [I-429]: the IC50 in test [1] is over 100 µM. As to `CCn1c(CO)nc2cc(Cl)c(OCc3ccc(F)cc3)cc21` [I-445], the IC50 in test [1] is over 100 µM. Take `CCn1c(CO)nc2cc(OCCc3ccccc3)c(Cl)cc21` [I-430]: in test [1], the IC50 was over 100 µM. The same measure, in the same setting: then `CC(=O)OCCc1cc2c(Oc3ccccc3)c(Cl)ccc2[nH]1` [I-260], with over 100 µM; and `OCc1nc2c(Br)cc(Oc3ccccc3)cc2[nH]1` [I-428, (4-bromo-6-phenoxy-1H-benzo[d]imidazol-2-yl)methanol], with over 100 µM; and `CCn1c(CO)nc2cc(Cl)c(OCc3ccc(Cl)cc3)cc21` [I-450], with over 100 µM. The same measure, in the same setting: then `Cn1c(CO)cc2c(Sc3ccc(Cl)cc3)cc(Cl)cc21` [I-206], with over 100 µM. In the case of `OCc1nc2cc(Cl)c(Cl)c(OCC3CCNC3)c2[nH]1` (stereo not shown) [I-460], the IC50 in test [1] is over 100 µM.

For `Clc1ccc(Sc2cc(Sc3ccc(Cl)cc3)c3cc[nH]c3c2)cc1` [I-200], in test [1], the IC50 was over 100 µM.
